These results are taken from patent EP0293220B1, “Pharmacologically active 2-and 3-substituted (1', 5'-diaryl-3-pyrazolyl)-N-Hydroxypropanamides and method for synthesizing” (ORTHO PHARMACEUTICAL CORPORATION, priority 1987, dated 1988).

One experiment deals with Polyarthritis. The experiment is described as follows: Polyarthritis induced by Mycobacterium butyricum in rats: inhibition of paw volume increase after oral dosing. In kind it is in vivo, Lewis strain laboratory rats. As to conditions: percent inhibition of paw volume increase. The protocol:
Polyarthritis was induced in Lewis strain laboratory rats (weight = about 200 grams) by injection of a suspension of Mycobacterium butyricum in mineral oil into the subplantar tissue of the mammal's hind paws. On day 10 after the injection, the rats were assigned to groups, and paw volumes and body weights were recorded. Paw volumes of the contralateral, uninjected hind paw were determined by mercury plethylsmography. Per oral (p.o.) dosing began and continued for five consecutive days thereafter. On day 14 after the initial injection, approximately four hours after the final dose was administered, paw volumes and body weights were recorded and quantitated.
Anti-inflammatory activity of the N-hydroxypropanamide pyrazole compounds is expressed as the percent inhibition of paw volume increase.

A further experiment has as its target T1, lipoxygenase (Rattus norvegicus, UniProt P12527).
T1 construct: endogenous in cells; host or cells: pleural exudate cells of carrageenan-treated Sprague-Dawley rats
T1 sequence (P12527 1-673): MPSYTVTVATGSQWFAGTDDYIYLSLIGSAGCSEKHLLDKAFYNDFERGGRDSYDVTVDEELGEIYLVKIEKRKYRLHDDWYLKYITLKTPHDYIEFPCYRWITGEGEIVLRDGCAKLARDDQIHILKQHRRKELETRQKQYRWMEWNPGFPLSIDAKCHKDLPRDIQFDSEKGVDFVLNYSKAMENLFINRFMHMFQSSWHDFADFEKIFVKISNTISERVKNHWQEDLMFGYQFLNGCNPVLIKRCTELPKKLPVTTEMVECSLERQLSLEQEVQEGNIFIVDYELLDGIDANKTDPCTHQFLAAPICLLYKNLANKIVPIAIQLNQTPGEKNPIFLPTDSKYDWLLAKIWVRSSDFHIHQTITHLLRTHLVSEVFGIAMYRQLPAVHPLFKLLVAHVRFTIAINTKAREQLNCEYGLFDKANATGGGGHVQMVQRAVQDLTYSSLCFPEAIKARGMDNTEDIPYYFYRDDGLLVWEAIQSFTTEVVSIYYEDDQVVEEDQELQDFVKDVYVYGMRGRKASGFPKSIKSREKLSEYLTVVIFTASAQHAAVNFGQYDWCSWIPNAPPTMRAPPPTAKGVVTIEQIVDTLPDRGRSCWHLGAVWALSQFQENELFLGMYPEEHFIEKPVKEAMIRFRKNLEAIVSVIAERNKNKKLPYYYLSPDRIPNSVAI
Nature of the experiment: Ex vivo arachidonic acid metabolism of rat pleural exudate cells after oral dosing, lipoxygenase products (5-HETE, leukotriene B₄). It counts as in vivo, Sprague-Dawley rats. The following applies: for inhibition at 30 mg/kg: 30 mpk; for ED50: oral dose, ex vivo rat pleural exudate cells, read-out: IC₅₀, p.o. Lipoxygenase. How it is done: This assay determines the ability of orally administered compounds to inhibit arachidonic acid metabolism with rat pleural exudate cells, via the lipoxygenase and/or cyclooxygenase enzymes. Sprague-Dawley rats (250 - 275 gm) are fasted overnight. The next morning, an acute inflammatory response is induced by the intra-thoracic injection of 1 ml of 0.25% carrageenan. Three hours later the rats are dosed orally with the test compounds at a screening dose of 16.5-30 mpk. Thirty minutes to one hour later the rats are sacrificed and pleural fluid harvested. The exudate fluids are diluted 1:5 using Hanks BSS and stimulated using 10 µg/ml calcium ionophore A-23187. The reaction is stopped after 15 minutes by the addition of 25 µl of 1N HCl, and the samples are centrifuged at 1000 g to sediment the cells. The supernate is extracted and applied to a C-18 HPLC column. The arachidonic acid metabolites 12-HHT (cyclooxygenase), 5-HETE, and leukotriene B₄ (lipoxygenase) are eluted using an acetonitrile methanol gradient and detected by UV absorption at 235 and 270 nm. The percent inhibition of the arachidonic acid metabolites is indicative of the anti-inflammatory activity of the tested compound and the results of this method for several compounds of the invention are listed in Table 13. The values shown are the percent inhibition at the dose indicated except for the those cases in which the IC₅₀ value is given.

Setting [1] is: rat, po, exudate cells stimulated with 10 µg/ml calcium ionophore A-23187, read-out: %INH., p.o. Lipoxygenase (mpk).

The structures appear in SMILES notation.

`COc1ccc(-n2nc(C(O)c3ccc(C)cc3)cc2-c2ccc(C)cc2)cc1` (stereo not drawn) [Compound 92]: the “%INH., p.o. (mpk)” value in the experiment on Polyarthritis (10 mpk) is reported as 27% @ 10.

Turning to `COc1ccc(-n2nc(C(O)c3ccc4ccccc4c3)cc2-c2ccc(C)cc2)cc1` (stereo not drawn) [Compound 94], the “%INH., p.o. (mpk)” value in the experiment on Polyarthritis (10 mpk) is listed as 29% @ 10.

Take `COc1ccc(-c2cc(C(O)c3ccccc3)nn2-c2ccc(OC)cc2)cc1` (stereo not drawn) [Compound 105, [1,5-Bis(4-methoxyphenyl)-3-pyrazolyl]-1-phenylmethanol]: in the experiment with Polyarthritis (15 mpk), the “%INH., p.o. (mpk)” value was 49% @ 15.

`COc1ccc(-n2nc(C(=O)c3ccc(Cl)cc3)cc2-c2ccc(C)cc2)cc1` [Compound 108]: in the experiment with Polyarthritis (10 mpk), the “%INH., p.o. (mpk)” value was determined as 25% @ 10.

As to `COc1ccc(-n2nc(C(=O)c3ccc(C)cc3)cc2-c2ccc(C)cc2)cc1` [Compound 109, 1-(4-Methoxyphenyl)-3-(4-methylbenzoyl)-5-(4-methylphenyl)pyrazole], the inhibition at 30 mg/kg on lipoxygenase (setting [1]) was 62%.

Take `CCOC(=O)/C=C(/c1ccc(C)cc1)c1cc(-c2ccc(C)cc2)n(-c2ccc(OC)cc2)n1` [Compound 125, (Z)-Ethyl 3-[1(4-methoxyphenyl)-5-(4-methylphenyl)-3-pyrazolyl]-3-(4-methylphenyl)propenoate]: the ED50 on lipoxygenase was found to be 9 mg/kg.

Take `CCOC(=O)/C=C(/c1ccc(-c2ccccc2)cc1)c1cc(-c2ccc(C)cc2)n(-c2ccc(OC)cc2)n1` [Compound 132]: the inhibition at 16.5 mg/kg on lipoxygenase (rat, po, 16.5 mpk, exudate cells stimulated with 10 µg/ml calcium ionophore A-23187, read-out: %INH., p.o. Lipoxygenase (mpk)) stood at 34%.

As to `CCOC(=O)CC(c1cc(-c2ccc(C)cc2)n(-c2ccc(OC)cc2)n1)c1cccc2ccccc12` (stereo not drawn) [Compound 150], the inhibition at 30 mg/kg on lipoxygenase (setting [1]) was found to be 42%.

As to `COc1ccc(-n2nc(/C(=C/C(=O)O)c3ccccc3)cc2-c2ccc(C)cc2)cc1` [Compound 155, (E)-3-[1-(4-Methoxyphenyl)-5-(4-methylphenyl)-3-pyrazolyl]-3-phenyl-2-propenoic acid], the “%INH., p.o. (mpk)” value in the experiment on Polyarthritis (10 mpk) amounted to 62% @ 10.

With `COc1ccc(-n2nc(/C(=C/C(=O)O)c3ccc(Cl)cc3)cc2-c2ccc(C)cc2)cc1` [Compound 157, (E)-3-(4-Chlorophenyl)-3-[1-(4-methoxyphenyl)-5-(4-methylphenyl)-3-pyrazolyl]propenoic acid], the “%INH., p.o. (mpk)” value in the experiment on Polyarthritis (10 mpk) is 24% @ 10.

Turning to `COc1ccc(-n2nc(/C(=C\C(=O)O)c3ccc(Cl)cc3)cc2-c2ccc(C)cc2)cc1` [Compound 158, (Z)-3-(4-Chlorophenyl)-3-[1-(4-methoxyphenyl)-5-(4-methylphenyl)-3-pyrazolyl]propenoic acid], the inhibition at 17.5 mg/kg at lipoxygenase (rat, po, 17.5 mpk, exudate cells stimulated with 10 µg/ml calcium ionophore A-23187, read-out: %INH., p.o. Lipoxygenase (mpk)) is 53%.

For `COc1ccc(-n2nc(/C(=C/C(=O)N(C)O)c3ccc(F)cc3)cc2-c2ccc(C)cc2)cc1` [Compound 163, (E)-3-(4-Fluorophenyl)-N-hydroxy-3-[1-(4-methoxyphenyl)-5-(4-methylphenyl)-3-pyrazolyl]-N-methylpropenamide], the ED50 at lipoxygenase was 10 mg/kg.

On to `COc1ccc(-n2nc(/C(=C/C(=O)N(C)O)c3ccc(Cl)cc3)cc2-c2ccc(C)cc2)cc1` [Compound 164], for which, in the experiment with Polyarthritis (10 mpk), the “%INH., p.o. (mpk)” value was 22% @ 10.

Take `COc1ccc(-n2nc(/C(=C\C(=O)N(C)O)c3ccc(Cl)cc3)cc2-c2ccc(C)cc2)cc1` [Compound 165]: the inhibition at 30 mg/kg on lipoxygenase (setting [1]) is 12%.

Regarding `COc1ccc(-n2nc(/C(=C/C(=O)N(C)O)c3ccc(-c4ccccc4)cc3)cc2-c2ccc(C)cc2)cc1` [Compound 168], the inhibition at 30 mg/kg at lipoxygenase (setting [1]) was found to be 3%.
